This note sets out measurements from EP0998923A1, “Use of 5-HT7 receptor agonists for the treatment or prophylaxis of ischemias” (BASF AKTIENGESELLSCHAFT, priority 1998, dated 2000).

The target in one data set is T1, 5-HT1A receptor (Homo sapiens, UniProt P08908).
T1 sequence (P08908 1-422): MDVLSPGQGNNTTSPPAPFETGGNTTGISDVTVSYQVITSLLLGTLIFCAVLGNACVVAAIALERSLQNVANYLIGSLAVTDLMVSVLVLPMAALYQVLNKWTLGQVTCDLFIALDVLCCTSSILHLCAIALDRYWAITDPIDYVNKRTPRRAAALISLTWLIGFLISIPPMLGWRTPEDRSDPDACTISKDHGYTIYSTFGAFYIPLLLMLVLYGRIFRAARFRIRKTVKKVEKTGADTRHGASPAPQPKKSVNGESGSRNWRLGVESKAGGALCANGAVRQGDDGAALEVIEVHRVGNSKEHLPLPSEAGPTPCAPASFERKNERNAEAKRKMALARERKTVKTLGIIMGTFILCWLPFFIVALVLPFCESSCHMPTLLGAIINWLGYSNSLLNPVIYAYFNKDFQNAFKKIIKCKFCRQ
Briefly: Affinity to the 5-HT1A receptor. The format is binding. From the text:
(§1) The affinity of a compound to a human 5-HT receptor can be measured and calculated easily by methods known to a skilled person.

The target of another data set is 5-HT7 receptor (Homo sapiens, UniProt P34969). Briefly: Affinity to the 5-HT7 receptor. The data set is classed as binding.
Excerpt: as §1

The next data set deals with male Long Evans rats. Briefly: Permanent distal middle cerebral artery (MCA) occlusion, rat model of experimental stroke. The data set is classed as in vivo. As to the method: The experiments were carried out in male Long Evans rats. Under halothane anesthesia supplemented with nitrous oxide, the right middle cerebral artery (MCA) was dissected and permanently ligated at a distal position as described in the literature. The outcome of the experiments was quantified by determining the resulting infarct volume 22 hours after MCA occlusion.
In the first series of experiments, animals were treated with 2 mg/kg R(+)-8-OH-DPAT i.v. followed by a maintenance infusion of 1 mg/kg/h R(+)-8-OH-DPAT i.v. Drug administration was started 90 min after MCA occlusion. In the second series of experiments, rats were pretreated with 2.14 mg/kg/h WAY 100,635 i.p., started 2 hours before MCA occlusion; administration of R(+)-8-OH-DPAT was subsequently performed as in the first study. Accordingly, in the second series a total dose of 2.14 mg/kg/h of WAY 100,635 had been administered for 3.5 h (total dosage = 7.49 mg/kg) before treatment with the agonist R(+)-8-OH-DPAT commenced. The blockade of 5-HT1A receptors under these conditions was confirmed by the complete lack of stereotyped behavior observed in animals treated with R(+)-8-OH-DPAT […]. Under the conditions of the second series, any pharmacological effect of R(+)-8-OH-DPAT treatment are mediated by the 5-HT7 receptor.
The experiments were carried out under the same conditions as described in Example 1,
A preferred 5-HT7 receptor agonist is 1-[3-[4-[3-(trifluoromethyl)-phenyl]-piperazine-1-yl]-propyl]-3-hydroxy-1H-pyridine-2-on (= Compound A), a compound which can be prepared as discribed in example 3. The 5-HT7 agonist Compound A was administered as an intravenous bolus followed by a maintenance infusion.

Chain of 5-HT7 receptor (P34969 whole entry): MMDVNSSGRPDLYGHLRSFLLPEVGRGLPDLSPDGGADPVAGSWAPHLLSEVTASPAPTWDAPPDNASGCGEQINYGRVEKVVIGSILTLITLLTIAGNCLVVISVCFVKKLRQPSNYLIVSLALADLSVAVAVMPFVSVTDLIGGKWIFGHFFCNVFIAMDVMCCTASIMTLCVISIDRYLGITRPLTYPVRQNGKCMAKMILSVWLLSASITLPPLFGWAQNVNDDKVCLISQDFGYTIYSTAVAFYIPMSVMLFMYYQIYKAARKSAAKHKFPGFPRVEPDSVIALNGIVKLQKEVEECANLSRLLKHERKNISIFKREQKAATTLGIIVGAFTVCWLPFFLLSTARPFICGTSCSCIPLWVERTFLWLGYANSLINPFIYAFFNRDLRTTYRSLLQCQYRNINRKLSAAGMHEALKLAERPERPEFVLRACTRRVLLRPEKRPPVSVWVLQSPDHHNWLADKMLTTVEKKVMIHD

In general, Ki refers to the dissociation constant of the complex between target and ligand, obtained from inhibition or displacement. `O=c1c(O)cccn1CCCN1CCN(c2cccc(C(F)(F)F)c2)CC1` [Compound A, 1-[3-[4-[3-(trifluoromethyl)-phenyl]-piperazine-1-yl]-propyl]-3-hydroxy-1H-pyridine-2-on]: the figures for the inhibition constant (Ki) on 5-HT1A receptor and on 5-HT7 receptor were 130 nM and 7 nM, respectively. For the same compound, the “selectivity for the 5-HT7 receptor” value on 5-HT7 receptor (5-HT7 over 5-HT1A (ratio of Ki values)) is given as “approximately 19 fold”. For the same compound, the Stereotyped behavior result in the data set with male Long Evans rats (Example 2: dose 4+2 mg/kg + mg/kg/h i.v.) is “No”. For the same compound, in the data set on male Long Evans rats (Example 2: dose 4+2 mg/kg + mg/kg/h i.v. (bolus + maintenance infusion), same conditions as Example 1), the “Infarct volume, % of control, mean ± SD, (n) Treatment” value was 78±23(10) % of control.
Regarding `CCCN(CCC)C1CCc2cccc(O)c2C1` (stereo not drawn) [R(+)-8-OH-DPAT, 8-hydroxy-di-n-propylamino tetralin], the “Infarct volume, % of control, mean ± SD, (n) Treatment” value in the data set on male Long Evans rats (Example 1: 2 mg/kg R(+)-8-OH-DPAT i.v. + 1 mg/kg/h i.v. infusion, started 90 min after MCA occlusion, combination: pretreated with 2.14 mg/kg/h WAY 100,635 i.p. from 2 hours before occlusion, infarct volume 22 hours after occlusion) is given as 72±32(12) % of control. Further, the Stereotyped behavior result in the data set on male Long Evans rats (Example 1: same dosing as for infarct volume, with or without WAY 100,635 pretreatment) is “Yes”. In the data set on male Long Evans rats (Example 1: versus placebo, 22 hours after MCA occlusion), the “reduction of infarct volume” value is recorded as 28%.
